US20220175787A1, “PATIENT SELECTION FOR ENHANCEMENT OF ANTI-TUMOR IMMUNITY IN CANCER PATIENTS” (G1 Therapeutics Inc., priority 2019, published 2022)

Legend:
[1] = test system: T-cell clones (T-cell receptor β sequences); test: Phase 2 NCT03041311 (E/P/A with or without trilaciclib): TCRB differential abundance analysis in whole blood; assay type: in vivo, human; details: for T-cell clonal expansion in responders: trilaciclib responders vs placebo responders and vs trilaciclib non-responders (FIG. 12)
Procedure: (§1) A phase 2 study of carboplatin, etoposide, and atezolizumab with or without trilaciclib in patients with untreated extensive stage small cell lung cancer was initiated (Clinicaltrials.gov identifier NCT03041311). […] a 21-day induction phase and a 21-day maintenance phase. Four induction phase cycles were completed prior to the initiation of the maintenance phase cycle.
In the induction phase, patients received trilaciclib (240 mg/m2 diluted in 250 mL D5W or sodium chloride solution 0.9%) or placebo (250 mL of D5W or sodium chloride solution 0.9%) administered IV once daily on days 1 to 3 of a 21-day cycle of each etoposide/carboplatin/atezolizumab (E/P/A) therapy cycle (up to 4 cycles in total). […] Atezolizumab (1200 mg) in 250 mL sodium chloride solution 0.9% was administered as an IV infusion on day 1 of each 21-day cycle in both the induction and maintenance phases. Atezolizumab was infused over 60 minutes for the first administration and, if tolerated, all subsequent infusions were delivered over 30 minutes. Atezolizumab was administered following the completion of administration of Compound I or placebo, etoposide, and carboplatin.
Analysis of the TCRB locus in blood samples was performed to identify biomarkers of immune response and immunomodulatory activity between the trilaciclib arm and the placebo arm. All samples were sequenced using a 1-rxn TCRB Assay. The number of expanded T-cell clones was determined by the differential abundance analysis of T-cell receptor β sequences in whole blood from patients at after induction and prior to starting maintenance versus baseline.

[2] = test system: extensive stage small cell lung cancer; test: Phase 2 NCT03041311: overall survival by newly expanded clone fraction; assay type: in vivo, human; details: SCLC patients on E/P/A above the newly expanded clone fraction median; p=0.04
Procedure: as §1
. […] Atezolizumab (1200 mg) in 250 mL sodium chloride solution 0.9% was administered as an IV infusion on day 1 of each 21-day cycle in both the induction and maintenance phases. Atezolizumab was infused over 60 minutes for the first administration and, if tolerated, all subsequent infusions were delivered over 30 minutes. Atezolizumab was administered following the completion of administration of Compound I or placebo, etoposide, and carboplatin.

[3] = test system: TNBC with high or low Ayers immune signature score; test: G1T28-04 survival by Ayers IFN-γ Signature / Expanded Immune Signature score; assay type: in vivo, human; details: Groups 2+3 (Group 4) vs Group 1
Procedure: Tumor samples from patients participating in the clinical trial described in Example 1 where assayed by Q^2 Solutions (Morrisville, N.C.) to determine their Ayers Immune Scores according to Ayers et al., IFN-γ-related mRNA Profile Predicts Clinical Response to PD-1 Blockade, J Clin Invest. 2017127(8)2930-2940. The data was processed using RNA Access, and FPKM normalization prior to log 10 transformation and averaging was performed.
89 samples were analyzed. The calculated signature score for both the IFN-γ Signature and Expanded Immune Signature were unimodel in distribution, and the median score was used to define the “High” and “Low” categories.
(§2) Survival and response rates between treatment groups within pre-defined immune response groups were determined using a series of pair-wise, two-group tests based on the data derived in the G1T28-04 clinical trial described in Example 1. Additionally, examination of differences in survival and response rates between different immune response categories within a single treatment group were analyzed.
Kaplan-Meier curves were generated to visualize the overall survival and progression free survival among groups (see FIGS. 8C-8F and 9A-9D). […]

[4] = test system: CD8+ T cells; assay type: cell-based, human; details: mTNBC patients
[5] = test system: TNBC classified C2 IFN-γ Dominant or not; test: G1T28-04 survival by Thorsson Six Class Immune Signature; assay type: in vivo, human; details: TNBC classified as C2 IFN-γ Dominant; Groups 2+3 (Group 4) vs Group 1; p=0.036
Text: Tumor samples from patients participating in the clinical trial (Clinical trials.gov identifier NCT02978716) described in Example 1 where assayed by Q^2 Solutions (Morrisville, N.C.) to determine their Six Class Immune Classification as described in Thorsson V, et al. “The Immune Landscape of Cancer.” Immunity, […], 2018, pp. 812-830. doi: 10.1016/j.immuni.2018.03.023 (incorporated herein by reference in its entirety).
Briefly, a six-step procedure was implemented to apply the Thorsson et al. classification to 89 pre-treatment triple negative breast cancer samples secured in the clinical trial described in Example 1. Following RNAseq data procurement, the data was cleaned and homogenized by reconciling gene and sample names across data sources. […] In short, samples in the resulting TCGA expression data were randomly down-sampled to more closely reflect the abundance of PAM50 classes within the clinical trial data (previously derived, see Example 1, Table 7). […]
as §2, with “analyzed. […]” for “analyzed.”

[6] = test system: PD-L1 positive or negative TNBC tumors; test: G1T28-04 overall survival by PD-L1 tumor status (Ventana SP142); assay type: in vivo, human; details: p=0.005
Procedure: Patient tumors from the G1T28-04 clinical trial described in Example 1 were characterized based on PD-L1 expression scored as negative or positive if <1% or ≥1% of the total tumor area contained PD-L1-labelled immune cells, respectively, using the Ventana SP142 assay. Association of PD-L1 expression with antitumor efficacy was assessed using proportional hazards regression. The groups are divided as follows: Group 1 (gemcitabine+carboplatin only on days 1 and 8 in a 21-day cycles), Group 2 (gemcitabine+carboplatin+trilaciclib on days 1 and 8 in a 21 day cycle), and Group 3 (gemcitabine+carboplatin on days 2 and 9+trilaciclib on days 1, 2, 8, and 9 in a 21-day cycle).

[7] = test system: TNBC tumors categorized as CDK4/6 independent, dependent or indeterminate; test: G1T28-04 subgroup analysis by CDK4/6 dependency signature (PAM50, Lehmann)
Text: Using two established signatures (Prosigna Breast Cancer Prognostic Gene Signature Assay [PAM50] and Lehmann triple-negative breast cancer type 1-4), patient tumors were characterized as CDK4/6 independent, dependent, or indeterminate. […] Because their reliance on the CDK4/6 pathway for proliferation is either unknown or heterogeneous, the remaining PAM50 signature groups (including HER2, normal-like, luminal A, and luminal B) are categorized as CDK4/6 indeterminate.
To address the theoretical risk that trilaciclib could decrease antitumor activity in patients with CDK4/6 dependent tumors by arresting CDK4/6-dependent tumor cells during chemotherapy, an additional prespecified subgroup analysis of the antitumor activity endpoints (objective response, progression-free survival, and overall survival) using two established signatures (PAM50 and Lehmann triple-negative breast cancer type 1-4) was performed to characterize patient tumors as CDK4/6 independent, dependent, or indeterminate.

SMILES: CN1CCN(c2ccc(Nc3ncc4cc5n(c4n3)C3(CCCCC3)CNC5=O)nc2)CC1 [trilaciclib, 2′-((5-(4-methylpiperazin-1-yl)pyridin-2-yl)amino)-7′, 8′-dihydro-6′H-spiro(cyclohexane-1,9′-pyrazino(1′,2′:1,5)pyrrolo(2,3-d)pyrimidin)-6′-one]
- Number of expanded T-cell clones ([1]; SCLC patients on E/P/A, trilaciclib vs E/P/A only, after induction vs baseline, P=0.01, FIG. 11): significantly higher
- Number of newly expanded T-cell clones in responders ([1]; SCLC, E/P/A, responders receiving trilaciclib vs without, p=0.001, FIG. 13): more newly expanded clones
- Fraction of newly expanded clones versus all expanded clones in responders ([1]; SCLC, E/P/A, responders receiving trilaciclib vs without, p=0.001, FIG. 14): significantly increased
- T-cell clonal expansion in responders ([1]; SCLC, E/P/A): more T-cell clonal expansion
- T-cell clonal expansion in responders ([1]; SCLC, E/P/A, listed as Trilaciclib): more clonal expansion
- OS HR (trilaciclib versus placebo) [2]: 0.34
- Overall survival compared with Group 1 (not receiving trilaciclib) ([3]; TNBC with high Ayers Expanded Immune Signature score): significantly improved overall survival
- Overall survival compared with Group 1 (not receiving trilaciclib) ([3]; TNBC with high Ayers IFN-γ Signature score, p=0.0194): significantly improved overall survival
- Lymphocyte counts and T-cell activation ([4]; addition of trilaciclib to gemcitabine and carboplatin): did not preserve lymphocyte counts or enhance T-cell activation
- Frequency of CD8+ T cells producing IFN-γ after ex-vivo stimulation ([4]; GC plus trilaciclib vs group 1 (FIG. 5)): higher frequency
- Overall survival compared with Group 1 (not receiving trilaciclib) [5]: significantly improved overall survival
- Overall survival compared with patients who did not receive trilaciclib [6]: statistically significant overall survival
- Effect of including trilaciclib on chemotherapy efficacy ([7]; TNBC with variable or CDK4/6 dependent tumor (PAM50 Other or Lehmann LAR)): did not antagonize chemotherapy efficacy
- Effect of including trilaciclib on chemotherapy efficacy ([7]; TNBC with variable or CDK4/6 independent tumor (PAM50 Basal-Like or Lehmann Other)): did not antagonize chemotherapy efficacy
